Measurements taken from patent publication US20250179059A1 (The Regents of the University of California, priority 2021, published 2025).
Where two headings read alike, the source gives them in different places.

How the values were obtained:
[1] = molecular target: T1, human BRD4 bromodomain II (Homo sapiens, UniProt O60885); assay: Bromodomain binding assay (AlphaScreen), BRD4 BDII
T1 construct: human BRD4 bromodomain II [based on Genbank NM_058243, residues 349-460]; host or cells: E. coli
Outline: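 E. coli-expressed N-terminal His6-tagged human BRD4 BDII (residues 349-460) or BDI (residues 44-170) was preincubated 30 min at room temperature with compound (10-point, 3-fold) in pH 7.5 HEPES buffer, 1% DMSO. Displacement of biotinylated tetra-acetylated H4 1-21 peptide was read by AlphaScreen, and IC50 came from curve fitting.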

[2] = test system: human SKM-1 acute myeloid leukemia cells; assay: SKM-1 antiproliferation cell-based assay (ATPlite); settings: Homo sapiens
Outline: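 Log-phase cells in RPMI 1640/15% FBS were seeded at 34722 cells/mL and exposed for 4 days to nine-concentration DMSO serial dilutions in triplicate. Viability was read as ATP luminescence (ATPlite 1step), and IC50 values came from variable-slope non-linear regression.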

[3] = AlphaScreen assay, Table C2, read-out: BRD4 BDII IC50
[4] = SKM-1, 96 h, SKM-1 antiproliferation assay, 4 days, Table C2
[5] = BRD4 BDII AlphaScreen assay, read-out: BRD4 BD2 IC50
[6] = SKM-1, SKM-1 antiproliferation assay

With `Cn1ccn(-c2ccc(-c3cc(F)cc(-c4cccc(N5CC[C@@](C)(O)C5)c4)c3O)cc2Cl)c1=O` [Example 807, (R)-1-(3-chloro-5′-fluoro-2′-hydroxy-3″-(3-hydroxy-3-methylpyrrolidin-1-yl)-[1,1′:3′,1″-terphenyl]-4-yl)-3-methyl-1H-imidazol-2(3H)-one] as the compound, how does the IC50 [1, 3] read?
Its IC50 is 1 to 10 nM.

And the GI50 [2, 4]?
Its GI50 is 30 to 300 nM.

Which results are given for `Cn1ccn(-c2ccc(-c3cc(F)cc(-c4cc(N5CC[C@H](N)C5)c5nn[nH]c5c4)c3O)cc2Cl)c1=O` [Example 537, (S)-1-(3′-(4-(3-aminopyrrolidin-1-yl)-1H-benzo[d][1,2,3]triazol-6-yl)-3-chloro-5′-fluoro-2′-hydroxy-[1,1′-biphenyl]-4-yl)-3-methyl-1H-imidazol-2(3H)-one]?
IC50 [1, 3]: 1 to 10 nM; GI50 [2, 4]: 30 to 300 nM

For `CN1CCN(c2ccc(-c3cc(C#N)cc(-c4ccnc(N5CCNCC5)c4)c3O)cc2Cl)C1=O` [Example 314, 3′-chloro-6-hydroxy-4′-(3-methyl-2-oxoimidazolidin-1-yl)-5-(2-(piperazin-1-yl)pyridin-4-yl)-[1,1′-biphenyl]-3-carbonitrile], which IC50 [1, 3] is on record?
Its IC50 is over 100 nM.

And the GI50 [2, 4]?
Its GI50 is at least 3000 nM.

Which IC50 [1, 3] does the source give for `CC(C)N1CCN(c2cc(-c3cc(F)cc(-c4ccc(-n5ccn(C)c5=O)c(Cl)c4)c3O)cnn2)CC1` [Example 797, 1-(3-chloro-5′-fluoro-2′-hydroxy-3′-(6-(4-isopropylpiperazin-1-yl)pyridazin-4-yl)-[1,1′-biphenyl]-4-yl)-3-methyl-1H-imidazol-2(3H)-one] here?
The IC50 was 0.01 to 1 nM.

And the GI50 [2, 4]?
Its GI50 is 0.3 to 30 nM.

How did the IC50 [1, 5] turn out when `Cc1ncc(-c2cc(F)cc(-c3ccc(-n4ccn(C)c4=O)c(Cl)c3)c2O)cc1N1CCN(C2CCOC2)CC1` (centres unmarked) [Example 890] was run?
Its IC50 is 1 to 10 nM.

And the GI50 [2, 6]?
Its GI50 is 0.3 to 30 nM.

How did the IC50 [1, 3] turn out when `Cn1ccn(-c2ccc(-c3cc(F)cc(-c4cncc(N5CCNCC5)c4)c3O)cc2Cl)c1=O` [Example 472, 1-(3-chloro-5′-fluoro-2′-hydroxy-3′-(5-(piperazin-1-yl)pyridin-3-yl)-[1,1′-biphenyl]-4-yl)-^3-methyl-1H-imidazol-2(3H)-one] was run?
Its IC50 is 1 to 10 nM.

And the GI50 [2, 4]?
The GI50 was 0.3 to 30 nM.

For `Cn1ccn(-c2ccc(-c3cc(F)cc(-c4cccc(C5=CCN(C(C)(C)C)CC5)c4)c3O)cc2Cl)c1=O` [Example 951, 1-(3″-(1-(tert-butyl)-1,2,3,6-tetrahydropyridin-4-yl)-3-chloro-5′-fluoro-2′-hydroxy-[1,1′:3′,1″-terphenyl]-4-yl)-3-methyl-1H-imidazol-2(3H)-one], which IC50 [1, 5] is on record?
Its IC50 is 1 to 10 nM.

And the GI50 [2, 6]?
The GI50 was 0.3 to 30 nM.

With `Cc1ncc(-c2cc(F)cc(-c3ccc(-n4ccn(C)c4=O)c(Cl)c3)c2O)cc1N1CC2CCC(C1)N2C(C)C` [Example 835, 1-(3-chloro-5′-fluoro-2′-hydroxy-3′-(5-(8-isopropyl-3,8-diazabicyclo[3.2.1]octan-3-yl)-6-methylpyridin-3-yl)-[1,1′-biphenyl]-4-yl)-3-methyl-1H-imidazol-2(3H)-one] as the compound, how does the IC50 [1, 3] read?
Its IC50 is 1 to 10 nM.

And the GI50 [2, 4]?
Its GI50 is 0.3 to 30 nM.

Which IC50 [1, 3] does the source give for `Cn1ccn(-c2ccc(-c3cc(F)cc(-c4ccnc(N5CCN(CCCF)CC5)c4)c3O)cc2Cl)c1=O` [Example 527, 1-(3-chloro-5′-fluoro-3′-(2-(4-(3-fluoropropyl)piperazin-1-yl)pyridin-4-yl)-2′-hydroxy-[1,1′-biphenyl]-4-yl)-3-methyl-1H-imidazol-2(3H)-one] here?
The IC50 was 0.01 to 1 nM.

And the GI50 [2, 4]?
Its GI50 is 0.3 to 30 nM.

What does the source list for `COc1ncc(-c2cc(F)cc(-c3ccc(-n4ccn(C)c4=O)c(Cl)c3)c2O)cc1N1CCN(C(C)C)CC1` [Example 738, 1-(3-chloro-5′-fluoro-2′-hydroxy-3′-(5-(4-isopropylpiperazin-1-yl)-6-methoxypyridin-3-yl)-[1,1′-biphenyl]-4-yl)-3-methyl-1H-imidazol-2(3H)-one]?
IC50 [1, 3]: 0.01 to 1 nM; GI50 [2, 4]: 0.3 to 30 nM

Which results are given for `Cn1ccn(-c2ccc(-c3cc(F)cc(-c4ccnc(N5CCN[C@H](CO)C5)c4)c3O)cc2Cl)c1=O` [Example 556, (S)-1-(3-chloro-5′-fluoro-2′-hydroxy-3′-(2-(3-(hydroxymethyl)piperazin-1-yl)pyridin-4-yl)-[1,1′-biphenyl]-4-yl)-3-methyl-1H-imidazol-2(3H)-one]?
IC50 [1, 3]: 1 to 10 nM; GI50 [2, 4]: 0.3 to 30 nM

`CC(C)N1CCCC12CCN(c1cc(-c3cc(F)cc(-c4ccc(-n5ccn(C)c5=O)c(Cl)c4)c3O)cnc1N(C)C)C2` (centres unmarked) [Example 969, 1-(3-chloro-3′-(6-(dimethylamino)-5-(1-isopropyl-1,7-diazaspiro[4.4]nonan-7-yl)pyridin-3-yl)-5′-fluoro-2′-hydroxy-[1,1′-biphenyl]-4-yl)-3-methyl-1H-imidazol-2(3H)-one] was tested. Which IC50 [1, 5] did it give?
The IC50 was 1 to 10 nM.

And the GI50 [2, 6]?
The GI50 was 30 to 300 nM.

`Cn1ccn(-c2ccc(-c3cc(F)cc(-c4cc(N5CC[C@H](N)C5)c5nccnc5c4)c3O)cc2Cl)c1=O` [Example 548, (S)-1-(3′-(8-(3-aminopyrrolidin-1-yl)quinoxalin-6-yl)-3-chloro-5′-fluoro-2′-hydroxy-[1,1′-biphenyl]-4-yl)-3-methyl-1H-imidazol-2(3H)-one] was tested. Which IC50 [1, 3] did it give?
Its IC50 is 1 to 10 nM.

And the GI50 [2, 4]?
Its GI50 is 0.3 to 30 nM.

Which results are given for `C[C@@H]1CN(c2cncc(-c3cc(F)cc(-c4ccc(-n5ccn(C)c5=O)c(Cl)c4)c3O)c2)CCN1C` [Example 474, (R)-1-(3-chloro-3′-(5-(3,4-dimethylpiperazin-1-yl)pyridin-3-yl)-5′-fluoro-2′-hydroxy-[1,1′-biphenyl]-4-yl)-3-methyl-1H-imidazol-2(3H)-one]?
IC50 [1, 3]: 0.01 to 1 nM; GI50 [2, 4]: 0.3 to 30 nM

What does the source list for `CNC(=O)c1cc(-c2ccnc(N3CCNCC3)c2)c(O)c(-c2ccc(NC(C)=O)c(F)c2)c1` [Example 299, 4′-Acetamido-3′-fluoro-6-hydroxy-N-methyl-5-(2-(piperazin-1-yl)pyridin-4-yl)-[1,1′-biphenyl]-3-carboxamide]?
IC50 [1, 3]: 10 to 100 nM; GI50 [2, 4]: ≥ 3000 nM

What does the source list for `Cn1ccn(-c2ccc(-c3cc(F)cc(-c4ccnc(N5CCNC(C)(C)C5)c4)c3O)cc2Cl)c1=O` [Example 563, 1-(3-chloro-3′-(2-(3,3-dimethylpiperazin-1-yl)pyridin-4-yl)-5′-fluoro-2′-hydroxy-[1,1′-biphenyl]-4-yl)-3-methyl-1H-imidazol-2(3H)-one]?
IC50 [1, 3]: 0.01 to 1 nM; GI50 [2, 4]: 0.3 to 30 nM

Which results are given for `C[C@@H]1CN(c2cc(-c3cc(F)cc(-c4ccc(-n5ccn(C)c5=O)c(Cl)c4)c3O)cc3[nH]ncc23)CCN1` [Example 543, (R)-1-(3-chloro-5′-fluoro-2′-hydroxy-3′-(4-(3-methylpiperazin-1-yl)-1H-indazol-6-yl)-[1,1′-biphenyl]-4-yl)-3-methyl-1H-imidazol-2(3H)-one]?
IC50 [1, 3]: 0.01 to 1 nM; GI50 [2, 4]: 0.3 to 30 nM

What does the source list for `CCc1ncc(-c2cc(F)cc(-c3ccc(-n4ccn(C)c4=O)c(Cl)c3)c2O)cc1N1CCN(C(C)(C)C)CC1` [Example 848, 1-(3′-(5-(4-(tert-butyl)piperazin-1-yl)-6-ethylpyridin-3-yl)-3-chloro-5′-fluoro-2′-hydroxy-[1,1′-biphenyl]-4-yl)-3-methyl-1H-imidazol-2(3H)-one]?
IC50 [1, 3]: 10 to 100 nM; GI50 [2, 4]: 0.3 to 30 nM

With `CC(=O)Nc1ccc(-c2cccc(-c3ccc(C#N)c(N4CCNCC4)c3)c2O)cc1F` [Example 236, N-(4″-cyano-3-fluoro-2′-hydroxy-3″-(piperazin-1-yl)-[1,1′:3′,1″-terphenyl]-4-yl)acetamide] as the compound, how does the IC50 [1, 3] read?
Its IC50 is 1 to 10 nM.

And the GI50 [2, 4]?
Its GI50 is 30 to 300 nM.

Which IC50 [1, 3] does the source give for `C[C@@H]1CN(c2cc(-c3cc(F)cc(-c4ccc(-n5ccn(C)c5=O)c(Cl)c4)c3O)cn(C)c2=O)CCN1` [Example 432, (R)-5-(3′-chloro-5-fluoro-2-hydroxy-4′-(3-methyl-2-oxo-2,3-dihydro-1H-imidazol-1-yl)-[1,1′-biphenyl]-3-yl)-1-methyl-3-(3-methylpiperazin-1-yl)pyridin-2(1H)-one] here?
Its IC50 is 0.01 to 1 nM.

And the GI50 [2, 4]?
The GI50 was 0.3 to 30 nM.

How did the IC50 [1, 3] turn out when `Cn1ccn(-c2ccc(-c3cc(F)cc(-c4cnc(C(F)F)c(N5CCN(C(C)(C)C)CC5)c4)c3O)cc2Cl)c1=O` [Example 826, 1-(3′-(5-(4-(tert-butyl)piperazin-1-yl)-6-(difluoromethyl)pyridin-3-yl)-3-chloro-5′-fluoro-2′-hydroxy-[1,1′-biphenyl]-4-yl)-3-methyl-1H-imidazol-2(3H)-one] was run?
Its IC50 is 0.01 to 1 nM.

And the GI50 [2, 4]?
Its GI50 is 0.3 to 30 nM.

`Cc1cccn(-c2ccc(-c3cc(F)cc(-c4ccnc(N5CCNCC5)c4)c3O)cc2Cl)c1=O` [Example 496, 1-(3-chloro-5′-fluoro-2′-hydroxy-3′-(2-(piperazin-1-yl)pyridin-4-yl)-[1,1′-biphenyl]-4-yl)-^3-methylpyridin-2(1H)-one] was tested. Which IC50 [1, 3] did it give?
The IC50 was over 100 nM.

What about the GI50 [2, 4] of the same compound?
The GI50 was at least 3000 nM.

How did the IC50 [1, 3] turn out when `Cn1ccn(-c2ccc(-c3cc(F)cc(-c4cncc(N5CC[C@](C)(O)C5)c4)c3O)cc2Cl)c1=O` [Example 729, (S)-1-(3-chloro-5′-fluoro-2′-hydroxy-3′-(5-(3-hydroxy-3-methylpyrrolidin-1-yl)pyridin-3-yl)-[1,1′-biphenyl]-4-yl)-3-methyl-1H-imidazol-2(3H)-one] was run?
Its IC50 is 0.01 to 1 nM.

And the GI50 [2, 4]?
Its GI50 is 0.3 to 30 nM.

What does the source list for `CN1CCN(c2ccc(-c3cccc(-c4cncc(N5CCC(N)CC5)c4)c3O)cc2Cl)C1=O` [Example 305, 1-(3′-(5-(4-aminopiperidin-1-yl)pyridin-3-yl)-3-chloro-2′-hydroxy-[1,1′-biphenyl]-4-yl)-3-methylimidazolidin-2-one]?
IC50 [1, 3]: 1 to 10 nM; GI50 [2, 4]: 30 to 300 nM

`CN1CCN(c2cc(-c3cc(F)cc(-c4ccc(-n5ccn(C)c5=O)c(Cl)c4)c3O)cc3c2cnn3C)CC1` [Example 604, 1-(3-chloro-5′-fluoro-2′-hydroxy-3′-(1-methyl-4-(4-methylpiperazin-1-yl)-1H-indazol-6-yl)-[1,1′-biphenyl]-4-yl)-3-methyl-1H-imidazol-2(3H)-one] was tested. Which IC50 [1, 3] did it give?
Its IC50 is 0.01 to 1 nM.

What about the GI50 [2, 4] of the same compound?
The GI50 was 0.3 to 30 nM.
